Experimental data reported in patent publication US9045491B2, “Thienyl [3,2-D] pyrimidin-4-one compounds, preparation method, pharmaceutical compositions and use thereof” (SHANGHAI INSTITUTE OF MATERIA MEDICA, CHINESE ACADEMY OF …, priority 2011, dated 2015).
Values joined by “and” are separate entries in the source; they are usually repeats but may differ in a detail not shown here. Equal entries are not always repeated.

Test: Pharmacokinetics of DC291407 and metabolites in rats (LC-MS/MS)
Format: in vivo, Sprague-Dawley (SD) rats
Procedure: The concentration of metabolite M1 (4071001), metabolite M2 (407002) or metabolite M3 (407003) in plasma was determined by LC-MS/MS method after DC291407 was administrated to the rats through gavage and intravenous injection.
The LC/MS/MS used is triple quadruple LC/MS 6460 from Agilent.
Six healthy male Sprague-Dawley (SD) rats with the weight of 180-220 g were randomly divided into 2 groups. The rats in each group were administrated with the tested compound by gavage or intravenous injection, respectively.
The compound was dissolved in 6.7% DMSO/6.7% Tween/86.6% normal saline.
The rats fasted for 12 h and can drink water ad libitum. 2 h after dosing, the rats were provided with food all together. The time point for collecting blood samples and the sample processing are listed as follows.
Intragastric administration: 0.25, 0.5, 1.0, 2.0, 3.0, 4.0, 6.0, 8.0 and 24 h after administration;
Intravenous administration: 5 min, 0.25, 0.5, 1.0, 2.0, 4.0, 6.0, 8.0 and 24 h after administration. At above time point, 0.3 ml venous blood was taken from retrobulbar venous plexus of the rat and loaded into heparinization tube. After centrifuged at 11000 rpm for 5 min, the plasma was separated and frozen at −20° C. in a refrigerator.

[1] = intravenous injection 10 mg/kg DC291407, average of 3 animals
[2] = intravenous injection 10 mg/kg DC291407, individual animals, 10 mg/kg
[3] = intravenous injection 10 mg/kg DC291407, time 0.083 h, average of 3 animals
[4] = intravenous injection 10 mg/kg DC291407, time 0.083 h, individual animals, 10 mg/kg
[5] = intravenous injection 10 mg/kg DC291407, time 0.25 h, average of 3 animals
[6] = intravenous injection 10 mg/kg DC291407, time 0.25 h, individual animals, 10 mg/kg
[7] = intravenous injection 10 mg/kg DC291407, time 0.50 h, average of 3 animals
[8] = intravenous injection 10 mg/kg DC291407, time 0.50 h, individual animals, 10 mg/kg
[9] = intravenous injection 10 mg/kg DC291407, time 1.0 h, average of 3 animals
[10] = intravenous injection 10 mg/kg DC291407, time 1.0 h, individual animals, 10 mg/kg
[11] = intravenous injection 10 mg/kg DC291407, time 2.0 h, average of 3 animals
[12] = intravenous injection 10 mg/kg DC291407, time 2.0 h, individual animals, 10 mg/kg
[13] = intravenous injection 10 mg/kg DC291407, time 4.0 h, individual animals, BLQ = below lower quantification
[14] = intravenous injection 10 mg/kg DC291407, time 6.0 h, individual animals, BLQ = below lower quantification
[15] = intravenous injection 10 mg/kg DC291407, time 8.0 h, individual animals, BLQ = below lower quantification
[16] = intravenous injection 10 mg/kg DC291407, time 24 h, individual animals, BLQ = below lower quantification

For COC(=O)c1cc2nc(N3CCCC(N)C3)n(Cc3ccccc3C#N)c(=O)c2s1 (stereo not shown) [DC291407], the “Tmax of metabolite M1” value [1] was 4.98 min, the “Vss of prototype drug” value [1] was 210 L/kg and the “t1/2 of metabolite M1” value [1] was 738 min. The “t1/2 of prototype drug” value [1] was 40.8 min, the “Tmax of metabolite M1” value (intravenous injection 10 mg/kg DC291407, individual animals) was 4.98 min and the “AUC0-t of metabolite M1” value [2] was 22692 ng·h/mL and 20658 ng·h/mL and 23472 ng·h/mL. For the same compound, the “AUC0-t of prototype drug” value [2] was 42.4 ng·h/mL and 40.9 ng·h/mL and 24.8 ng·h/mL, the “AUC0-∞ of metabolite M1” value [2] was 23114 ng·h/mL and 20834 ng·h/mL and 23603 ng·h/mL and the “AUC0-∞ of prototype drug” value [2] was 45.9 ng·h/mL and 43.9 ng·h/mL and 29.8 ng·h/mL. For the same compound, the “CL of prototype drug” value [2] was 218 L/h/kg and 228 L/h/kg and 335 L/h/kg, the “Cmax of metabolite M1” value [2] was 39818 ng/mL and 41730 ng/mL and 53535 ng/mL and the “MRT of metabolite M1” value [2] was 96 min and 60.6 min and 47.4 min. The “MRT of prototype drug” value [2] was 40.8 min and 40.2 min and 58.8 min, the “Vss of prototype drug” value [2] was 148 L/kg and 154 L/kg and 328 L/kg and the “t1/2 of metabolite M1” value [2] was 1150 min and 551 min and 504 min. The “t1/2 of prototype drug” value [2] was 30.6 min and 31.8 min and 60.6 min, the “Plasma concentration of metabolite M1” value [3] was 45028 ng/mL and the “Plasma concentration of metabolite M2” value [3] was 117 ng/mL. The “Plasma concentration of prototype compound” value [3] was 59.2 ng/mL, the “Plasma concentration of metabolite M1” value [4] was 39818 ng/mL and 41730 ng/mL and 53535 ng/mL and the “Plasma concentration of metabolite M2” value [4] was 126 ng/mL and 209 ng/mL and 15.0 ng/mL. For the same compound, the “Plasma concentration of prototype compound” value [4] was 63.4 ng/mL and 60.7 ng/mL and 53.4 ng/mL, the “Plasma concentration of metabolite M1” value [5] was 29232 ng/mL and the “Plasma concentration of metabolite M2” value [5] was 339 ng/mL. The “Plasma concentration of prototype compound” value [5] was 34.8 ng/mL, the “Plasma concentration of metabolite M1” value [6] was 28858 ng/mL and 29247 ng/mL and 29592 ng/mL and the “Plasma concentration of metabolite M2” value [6] was 866 ng/mL and 132 ng/mL and 20.3 ng/mL. For the same compound, the “Plasma concentration of prototype compound” value [6] was 49.7 ng/mL and 34.4 ng/mL and 20.3 ng/mL, the “Plasma concentration of metabolite M1” value [7] was 9487 ng/mL and the “Plasma concentration of metabolite M2” value [7] was 102 ng/mL. The “Plasma concentration of prototype compound” value [7] was 23.0 ng/mL, the “Plasma concentration of metabolite M1” value [8] was 11784 ng/mL and 7251 ng/mL and 9426 ng/mL and the “Plasma concentration of metabolite M2” value [8] was 144 ng/mL and 153 ng/mL and 9.39 ng/mL. The “Plasma concentration of prototype compound” value [8] was 27.4 ng/mL and 31.7 ng/mL and 9.72 ng/mL, the “Plasma concentration of metabolite M1” value [9] was 4717 ng/mL and the “Plasma concentration of metabolite M2” value [9] was 23.4 ng/mL. For the same compound, the “Plasma concentration of prototype compound” value [9] was 9.9 ng/mL, the “Plasma concentration of metabolite M1” value [10] was 5628 ng/mL and 4634 ng/mL and 3891 ng/mL and the “Plasma concentration of metabolite M2” value [10] was 36.0 ng/mL and 30.9 ng/mL and 3.26 ng/mL. The “Plasma concentration of prototype compound” value [10] was 11.3 ng/mL and 11.9 ng/mL and 6.61 ng/mL, the “Plasma concentration of metabolite M1” value [11] was 310 ng/mL and the “Plasma concentration of prototype compound” value [11] was 4.05 ng/mL. For the same compound, the “Plasma concentration of metabolite M1” value [12] was 401 ng/mL and 214 ng/mL and 314.7 ng/mL, the “Plasma concentration of prototype compound” value [12] was 4.75 ng/mL and 3.94 ng/mL and 3.44 ng/mL and the “Plasma concentration of metabolite M2” value (intravenous injection 10 mg/kg DC291407, time 2.0 h, individual animals, BLQ = below lower quantification, 10 mg/kg) was “BLQ (2×) and 7.18 ng/mL”. The “Plasma concentration of metabolite M1” value (intravenous injection 10 mg/kg DC291407, time 4.0 h, average of 3 animals) was 69.7 ng/mL, the “Plasma concentration of metabolite M1” value (intravenous injection 10 mg/kg DC291407, time 4.0 h, individual animals, 10 mg/kg) was 55.4 ng/mL and 68.1 ng/mL and 85.5 ng/mL and the “Plasma concentration of metabolite M2” value [13] was “BLQ”. The “Plasma concentration of prototype compound” value [13] was “BLQ”, the “Plasma concentration of metabolite M1” value (intravenous injection 10 mg/kg DC291407, time 6.0 h, average of 3 animals) was 40.5 ng/mL and the “Plasma concentration of metabolite M1” value (intravenous injection 10 mg/kg DC291407, time 6.0 h, individual animals, 10 mg/kg) was 30.9 ng/mL and 41.4 ng/mL and 49.3 ng/mL. For the same compound, the “Plasma concentration of metabolite M2” value [14] was “BLQ”, the “Plasma concentration of prototype compound” value [14] was “BLQ” and the “Plasma concentration of metabolite M1” value (intravenous injection 10 mg/kg DC291407, time 8.0 h, average of 3 animals) was 37.3 ng/mL. For the same compound, the “Plasma concentration of metabolite M1” value (intravenous injection 10 mg/kg DC291407, time 8.0 h, individual animals, 10 mg/kg) was 24.8 ng/mL and 48.5 ng/mL and 38.5 ng/mL, the “Plasma concentration of metabolite M2” value [15] was “BLQ” and the “Plasma concentration of prototype compound” value [15] was “BLQ”. For the same compound, the “Plasma concentration of metabolite M1” value (intravenous injection 10 mg/kg DC291407, time 24 h, average of 3 animals) was 13.1 ng/mL, the “Plasma concentration of metabolite M1” value (intravenous injection 10 mg/kg DC291407, time 24 h, individual animals, 10 mg/kg) was 15.2 ng/mL and 13.3 ng/mL and 10.8 ng/mL and the “Plasma concentration of metabolite M2” value [16] was “BLQ”. For the same compound, the “Plasma concentration of prototype compound” value [16] was “BLQ”.
